Among the data in US8507538B2, “Selective heterocyclic sphingosine 1 phosphate receptor modulators” (Receptos, Inc., priority 2009, dated 2013) are EC50 values, retold here.

Where a name gives a salt, the structure may show the parent alone.

In the experiment the target is S1P1/EDG1 (Homo sapiens, UniProt P21453). The experiment in a line: S1P1 CRE-bla CHOK1 reporter assay (inhibition of Forskolin induced cAMP). It counts as cell-based. The conditions noted are these: agonist activity range, Table 2; read-out: S1P1 ACTIVITY
Sequence of S1P1/EDG1 (P21453 whole entry): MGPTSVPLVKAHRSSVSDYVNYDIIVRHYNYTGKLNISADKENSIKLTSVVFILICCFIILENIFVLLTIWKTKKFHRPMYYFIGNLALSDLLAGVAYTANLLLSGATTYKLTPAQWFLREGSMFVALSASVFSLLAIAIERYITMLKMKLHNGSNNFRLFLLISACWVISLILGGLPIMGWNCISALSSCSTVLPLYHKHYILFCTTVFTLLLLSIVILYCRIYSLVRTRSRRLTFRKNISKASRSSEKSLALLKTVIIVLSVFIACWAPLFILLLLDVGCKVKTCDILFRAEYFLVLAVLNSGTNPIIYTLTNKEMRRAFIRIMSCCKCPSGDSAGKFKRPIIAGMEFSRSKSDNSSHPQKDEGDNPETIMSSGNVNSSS
The text has this:
A mammalian expression plasmid containing S1P1/EDG1 cloned into pcDNA3.1 was purchased from Missouri S&T cDNA Resource Centre. The nucleotide and amino acid sequence of human S1P1/EDG1 are published in Hla and Maciag (J Biol Chem, 265(1990), 9308-9313). S1P1/pcDNA3.1 was transfected into the CRE-bla CHO K1 (Invitrogen) cell line, and stable single cell clones were selected using standard techniques. Expression of functional SIP1/EDG1 receptor was confirmed by cell surface FACS with a S1P1 antibody (R&D Systems, clone 218713) and S1P-mediated inhibition of Forskolin induced cAMP.
Cells were seeded into 384-well black wall/clear bottom plates at 10^4 cells/well/19.5 μl assay media (DMEM-phenol free, 0.5% charcoal/dextran stripped serum, 2 mM glutamine, 0.1 mM NEAA, 1 mM Na-Pyruvate, 25 mM Hepes) and incubated for 18 hrs at 37° C. in 5% CO2. Dose response curves (10-point) were generated in 10 mM Hepes, 0.1% Pluronic F127, in the presence of Forskolin. Cells were treated with 0.5 μl compound in the presence of 2 μM Forskolin for 4 hrs at 37° C. The FRET-based β-lactamase fluorescent substrate (LiveBLAzer™ FRET B/G Loading Kit CC4-AM; Invitrogen) was prepared according to manufacturer's directions, and incubated with cells for 2 hrs at room temperature. Plates were read at Ex:410/Em:458 and Ex:410/Em:522, and the response ratio determined. Data was analyzed by non-linear regression to determine the EC50 for inhibition of Forskolin induced cAMP.
On to `CC(C)Oc1ccc(-c2nnc(-c3cccc4c3CCC4NCC(=O)O)s2)cc1C#N` (stereo in doubt) [Compound 27, (R)-2-((4-(5-(3-cyano-4-isopropoxyphenyl)-1,3,4-thiadiazol-2-yl)-2,3-dihydro-1H-inden-1-yl)amino)acetic acid], for which the EC50 was in the range of 0.05 to 0.5 nM.
The value for `CC(C)Oc1ccc(-c2nnc(-c3cccc4c3CCC4NCCS(C)(=O)=O)s2)cc1C#N` (stereo in doubt) [Compound 32, (R)-2-isopropoxy-5-(5-(1-((2-(methylsulfonyl)ethyl)amino)-2,3-dihydro-1H-inden-4-yl)-1,3,4-thiadiazol-2-yl)benzonitrile] was under 0.05 nM; that for `CC(C)Oc1ccc(-c2cc(-c3cccc4c3CCC4O)cs2)cc1C#N` (centres unmarked) [Compound 226, 5-(4-(1-hydroxy-2,3-dihydro-1H-inden-4-yl)thiophen-2-yl)-2-isopropoxybenzonitrile] was 0.5 to 5 nM.
For `CC(C)Oc1ccc(-c2ncc(-c3cccc4c3CC[C@@H]4NS(=O)(=O)CCN3CCCCC3)s2)cc1C#N` [Compound 139], the EC50 is over 5 nM.
`CC(C)Oc1ccc(-c2ncc(-c3cccc4c3CC[C@@H]4NS(=O)(=O)CCC(=O)O)s2)cc1C#N` [Compound 161]: the EC50 lay within 0.05 to 0.5 nM.
`CC(C)Oc1ccc(-c2ncc(-c3cccc4c3CC[C@@H]4NCC(=O)N3CC[C@H](O)C3)s2)cc1C#N` [Compound 104, 5-(5-((S)-1-((2-((S)-3-hydroxypyrrolidin-1-yl)-2-oxoethyl)amino)-2,3-dihydro-1H-inden-4-yl)thiazol-2-yl)-2-isopropoxybenzonitrile]: the EC50 is 0.5 to 5 nM.
The value for `CC(C)Oc1ccc(-c2ncc(-c3cccc4c3CC[C@@H]4NS(=O)(=O)CCN3CC[C@H](N(C)C)C3)s2)cc1C#N` [Compound 137] was over 5 nM; that for `CC(C)Oc1ccc(-c2ccc(-c3cccc4c3CCC4NCCO)s2)cc1C#N` (centres unmarked) [Compound 224, 5-(5-(1-(2-hydroxyethylamino)-2,3-dihydro-1H-inden-4-yl)thiophen-2-yl)-2-isopropoxybenzonitrile] was over 5 nM; that for `CC(C)Oc1ccc(-c2ncc(-c3cccc4c3CCC4N[C@H](C)CO)s2)cc1C#N` (some centres unmarked) [Compound 95] was 0.5 to 5 nM.
As for `CC(C)Oc1ccc(-c2ncc(-c3cccc4c3CC[C@@H]4NS(=O)(=O)CCN3CCCC3)s2)cc1C#N` [Compound 129], the EC50 is over 5 nM.
The value for `CC(C)Oc1ccc(-c2ncc(-c3cccc4c3CC[C@@H]4NS(=O)(=O)CCN3CCC3)s2)cc1C#N` [Compound 128] was over 5 nM; that for `CC(C)Oc1ccc(-c2ncc(-c3cccc4c3CC[C@@H]4NC(=O)N3CCCC3)s2)cc1C#N` [Compound 173, (S)-N-(4-(2-(3-cyano-4-isopropoxyphenyl)thiazol-5-yl)-2,3-dihydro-1H-inden-1-yl)pyrrolidine-1-carboxamide] was 0.5 to 5 nM.
For the compound `CC(C)Oc1ccc(-c2nnc(-c3cccc4c3CC[C@H]4NS(=O)(=O)CCN3CC[C@@H](O)C3)s2)cc1C#N` (stereo in doubt) [Compound 38, N-((R)-4-(5-(3-cyano-4-isopropoxyphenyl)-1,3,4-thiadiazol-2-yl)-2,3-dihydro-1H -inden-1-yl)-2-((R)-3-hydroxypyrrolidin-1-yl)ethanesulfonamide], the EC50 fell in the range of 0.5 to 5 nM.
For the compound `CC(C)Oc1ccc(-c2ncc(-c3cccc4c3CCC4NC3CCOCC3)s2)cc1C#N` (centres unmarked) [Compound 217], the EC50 is over 5 nM.
`COCCN[C@H]1CCc2c(-c3nnc(-c4ccc(OC(C)C)c(C#N)c4)s3)cccc21` [Compound 19]: the EC50 is 0.5 to 5 nM.
As to `CC(C)Oc1ccc(-c2ncc(-c3cccc4c3CCC4NS(C)(=O)=O)s2)cc1C#N` (stereo in doubt) [Compound 111, (R)-N-(4-(2-(3-cyano-4-isopropoxyphenyl)thiazol-5-yl)-2,3-dihydro-1H-inden-1-yl)methanesulfonamide], the EC50 lay within 0.05 to 0.5 nM.
`CC(C)Oc1ccc(-c2nnc(-c3cccc4c3CC[C@@H]4NS(C)(=O)=O)s2)cc1C#N` [Compound 33, (S)-N-(4-(5-(3-cyano-4-isopropoxyphenyl)-1,3,4-thiadiazol-2-yl)-2,3-dihydro-1H-inden-1-yl)methanesulfonamide]: the EC50 is 0.05 to 0.5 nM.
The value for `COC(=O)CC1CCN(C(=O)N[C@H]2CCc3c(-c4cnc(-c5ccc(OC(C)C)c(C#N)c5)s4)cccc32)CC1` [Compound 204] was 0.5 to 5 nM; that for `CC(C)Oc1ccc(-c2ncc(-c3cccc4c3CC[C@@H]4NS(=O)(=O)CCN3CC[C@@H](N(C)C)C3)s2)cc1C#N` [Compound 138] was over 5 nM; that for `CC(C)Oc1ccc(-c2ncc(-c3cccc4c3CC[C@@H]4NC(=O)N3CC[C@@H](O)C3)s2)cc1C#N` [Compound 176] was 0.5 to 5 nM.
Turning to `CC(=O)N[C@H]1CCc2c(-c3cnc(-c4ccc(OC(C)C)c(C#N)c4)s3)cccc21` [Compound 88], the EC50 lay within 0.5 to 5 nM.
For the compound `CC(C)Oc1ccc(-c2ncc(-c3cccc4c3CCC4NS(=O)(=O)CCO)s2)cc1C#N` (stereo in doubt) [Compound 164, (R)-N-(4-(2-(3-cyano-4-isopropoxyphenyl)thiazol-5-yl)-2,3-dihydro-1H-inden-1-yl)-2-hydroxyethanesulfonamide], the EC50 fell in the range of 0.05 to 0.5 nM.
In the case of `COC(=O)CS(=O)(=O)NC1CCc2c(-c3cnc(-c4ccc(OC(C)C)c(C#N)c4)s3)cccc21` (stereo in doubt) [Compound 154, (R)-methyl 2-(N-(4-(2-(3-cyano-4-isopropoxyphenyl)thiazol-5-yl)-2,3-dihydro-1H-inden-1-yl)sulfamoyl)acetate], the EC50 lay in the range of 0.05 to 0.5 nM.
`CC(C)Oc1ccc(-c2ncc(-c3cccc4c3CC[C@H]4NS(=O)(=O)CCN3CCC[C@@H](O)C3)s2)cc1C#N` (stereo in doubt) [Compound 143, N-((R)-4-(2-(3-cyano-4-isopropoxyphenyl)thiazol-5-yl)-2,3-dihydro-1H-inden-1-yl)-2-((R)-3-hydroxypiperidin-1-yl)ethanesulfonamide]: the EC50 was 0.5 to 5 nM.
Consider `CC(C)Oc1ccc(-c2ncc(-c3cccc4c3CC[C@@H]4NC(=O)N3CCNCC3)s2)cc1C#N` [Compound 189], for which the EC50 was over 5 nM.
As for `CC(C)Oc1ccc(-c2ncc(-c3cccc4c3CC[C@@H]4NS(=O)(=O)CCN3CCC(N(C)C)CC3)s2)cc1C#N` [Compound 153], the EC50 is over 5 nM.
Regarding `CC(C)Oc1ccc(-c2ncc(-c3cccc4c3CC[C@@H]4NC(=O)N3CCC[C@H](O)C3)s2)cc1C#N` [Compound 196], the EC50 was 0.5 to 5 nM.
As to `CC(C)Oc1ccc(-c2nnc(-c3cccc4c3CC[C@@H]4NS(=O)(=O)CC(N)=O)s2)cc1C#N` [Compound 44], the EC50 is under 0.05 nM.
The result for `CC(C)Oc1ccc(-c2nnc(-c3cccc4c3CC[C@@H]4NC(=O)N3CC(O)C3)s2)cc1C#N` [Compound 65] reads 0.05 to 0.5 nM.
For the compound `CNCCS(=O)(=O)N[C@H]1CCc2c(-c3cnc(-c4ccc(OC(C)C)c(C#N)c4)s3)cccc21` [Compound 125], the EC50 is 0.5 to 5 nM.
`COCCS(=O)(=O)N[C@H]1CCc2c(-c3nnc(-c4ccc(OC(C)C)c(C#N)c4)s3)cccc21` [Compound 35]: the EC50 was 0.05 to 0.5 nM.
For `CC(C)Oc1ccc(-c2ncc(-c3cccc4c3CC[C@@H]4NS(=O)(=O)CCN3CCNCC3)s2)cc1C#N` [Compound 151], the EC50 was over 5 nM.
For `CC(C)Oc1ccc(-c2ncc(-c3cccc4c3CCC4N3CC[C@@H](N)C3)s2)cc1C#N` (some centres unmarked) [Compound 212], the EC50 was over 5 nM.
`COC(=O)N[C@H]1CCc2c(-c3nnc(-c4ccc(OC(C)C)c(C#N)c4)s3)cccc21` [Compound 68]: the EC50 was in the range of 0.05 to 0.5 nM.
For the compound `CC(C)Oc1ccc(-c2ncc(-c3cccc4c3CCC4N3CCCC3)s2)cc1C#N` (centres unmarked) [Compound 208], the EC50 lay within 0.5 to 5 nM.
Take `CC(C)Oc1ccc(-c2ncc(-c3cccc4c3CC[C@@H]4NC(=O)N(C)C)s2)cc1C#N` [Compound 168]: the EC50 lay in the range of 0.05 to 0.5 nM.
For `CC(C)Oc1ccc(-c2nnc(-c3cccc4c3CC[C@@H]4NC(=O)N3CC(C(=O)O)C3)s2)cc1C#N` [Compound 50], the EC50 lay within 0.05 to 0.5 nM.
For `CC(=O)N[C@@H]1CCc2c(-c3nnc(-c4ccc(OC(C)C)c(C#N)c4)s3)cccc21` [Compound 15, (R)-N-(4-(5-(3-cyano-4-isopropoxyphenyl)-1,3,4-thiadiazol-2-yl)-2,3-dihydro-1H-inden-1-yl)acetamide], the EC50 is 0.05 to 0.5 nM.
As to `CC(C)Oc1ccc(-c2nnc(-c3cccc4c3CCC4NS(N)(=O)=O)s2)cc1C#N` (stereo in doubt) [Compound 48, (R)-N-(4-(5-(3-cyano-4-isopropoxyphenyl)-1,3,4-thiadiazol-2-yl)-2,3-dihydro-1H-inden-1-yl)sulfamide], the EC50 was under 0.05 nM.
The result for `CC(C)Oc1ccc(-c2nnc(-c3cccc4c3CCC4NCC(=O)N(C)C)s2)cc1C#N` (stereo in doubt) [Compound 22, (R)-2-((4-(5-(3-cyano-4-isopropoxyphenyl)-1,3,4-thiadiazol-2-yl)-2,3-dihydro-1H-inden-1-yl)amino)-N,N-dimethylacetamide hydrochloride] reads 0.05 to 0.5 nM; that for `CC(C)Oc1ccc(-c2ncc(-c3cccc4c3CC[C@@H]4NCC(=O)N(C)C)s2)cc1C#N` [Compound 98], 0.5 to 5 nM.
